The values below come from patent US12110286B2, “Benzimidazolone derived inhibitors of BCL6” (Cancer Research Technology Limited, priority 2017, dated 2024).

The structures appear in SMILES notation.

In one test the target is Trx-6×His-BCL6 (human BCL6 BTB domain covering amino-acid sequence 5-129) (Homo sapiens (Human), UniProt P41182). Description: HTRF in vitro assay (BCL6 / BCOR-AF633 peptide). The test is classed as binding. The conditions noted are these: further generated data; 1 nM Trx-6×His-BCL6, 300 nM BCOR-AF633 peptide, 0.5 nM anti-6×His-Terbium cryptate. The procedure:
The % inhibition at each concentration was calculated by normalising FRET ratio to the appropriate high (DMSO with all reagents) and low (DMSO without BCL6) controls.
In general terms: TR-FRET usually uses a lanthanide donor and a delayed reading to cut background.
Regarding `CC(C)C(C)(O)CCn1c(=O)n(C)c2ccc(Nc3ccnc(Cl)c3C#N)cc21` (stereo not shown) [Example 27f, 2-chloro-4-((3-(3-hydroxy-3,4-dimethylpentyl)-1-methyl-2-oxo-2,3-dihydro-1H-benzo[d]imidazol-5-yl)amino)nicotinonitrile], the “HTRF pIC50” value is recorded as 5.40.
On to `Cn1c(=O)n(CCC(C)(C)O)c2cc(Nc3nc(N4C[C@@H]5CC[C@@H](C5)C4)ncc3Cl)ccc21` [Example 35n, 5-((2-((1R,5S)-3-azabicyclo[3.2.1]octan-3-yl)-5-chloropyrimidin-4-yl)amino)-3-(3-hydroxy-3-methylbutyl)-1-methyl-1,3-dihydro-2H-benzo[d]imidazol-2-one], for which the “HTRF pIC50” value came to 6.05.
The same measure, in the same setting: the same measure for `Cc1ccn(-c2ncc(Cl)c(Nc3ccc4c(c3)n(CCC(C)(C)O)c(=O)n4C)n2)n1` [Example 16a, 5-((5-chloro-2-(3-methyl-1H-pyrazol-1-yl)pyrimidin-4-yl)amino)-3-(3-hydroxy-3-methylbutyl)-1-methyl-1,3-dihydro-2H-benzo[d]imidazol-2-one]: 6.38; for `Cn1c(=O)n(C[C@@H]2CCCN2CCO)c2cc(Nc3ccnc(Cl)c3C#N)ccc21` [Example 25g, (S)-2-chloro-4-((3-((1-(2-hydroxyethyl)pyrrolidin-2-yl)methyl)-1-methyl-2-oxo-2,3-dihydro-1H-benzo[d]imidazol-5-yl)amino)nicotinonitrile: formic acid (1:1)]: 5.34.
In the case of `CCC1(Cn2c(=O)n(C)c3ccc(Nc4ccnc(Cl)c4C#N)cc32)CN(C)C(=O)O1` (stereo not shown) [Example 22e], the “HTRF pIC50” value worked out at 5.88.
Turning to `COC(=O)C(C)CCn1c(=O)n(C)c2ccc(Nc3cc(-c4nc(C)no4)nc(Cl)c3C#N)cc21` (stereo not shown) [Example 5, Methyl 4-[6-[[2-chloro-3-cyano-6-(3-methyl-1,2,4-oxadiazol-5-yl)-4-pyridyl]amino]-3-methyl-2-oxo-benzimidazol-1-yl]-2-methyl-butanoate], the “HTRF pIC50” value is listed as 6.19.
For `CCC(C)(O)CCn1c(=O)n(C)c2ccc(Nc3nc(Cl)ncc3Cl)cc21` (stereo not shown) [Example 22g, 5-((2,5-dichloropyrimidin-4-yl)amino)-3-(3-hydroxy-3-methylpentyl)-1-methyl-1,3-dihydro-2H-benzo[d]imidazol-2-one], the “HTRF pIC50” value is 5.27.
As to `Cn1c(=O)n(CCC(C)(C)O)c2cc(Nc3nc(-n4cc(C(F)(F)F)cn4)ncc3Cl)ccc21` [Example 20s], the “HTRF pIC50” value worked out at 6.26.
As to `COC(=O)C(C)CCn1c(=O)n(C)c2ccc(Nc3cc(C(=O)O)nc(Cl)c3C#N)cc21` (stereo not shown) [Example 3a, 6-Chloro-5-cyano-4-[[3-(4-methoxy-3-methyl-4-oxo-butyl)-1-methyl-2-oxo-benzimidazol-5-yl]amino]pyridine-2-carboxylic acid], the “HTRF pIC50” value is 5.93.
Consider `CN(C)C(=O)C1CCN(c2ncc(Cl)c(Nc3ccc4c(c3)n(CCC(C)(O)CCO)c(=O)n4C)n2)CC1` (stereo not shown) [Example 15k], for which the “HTRF pIC50” value was 6.27.
With `Cc1cc(C)n(-c2ncc(Br)c(Nc3ccc4c(c3)n(CCC(C)(C)O)c(=O)n4C)n2)n1` [Example 15q], the “HTRF pIC50” value is listed as 6.09.
On the same count and under the same terms, the same measure for `Cn1c(=O)n(CCC(C)(C)O)c2cc(Nc3nc(N4CC5CCC(C4)C5(F)F)ncc3Cl)ccc21` [Example 35s, 5-((5-chloro-2-(8,8-difluoro-3-azabicyclo[3.2.1]octan-3-yl)pyrimidin-4-yl)amino)-3-(3-hydroxy-3-methylbutyl)-1-methyl-1,3-dihydro-2H-benzo[d]imidazol-2-one]: 6.16.
For `Cc1cc(-c2ncc(Cl)c(Nc3ccc4c(c3)n(CCC(C)(C)O)c(=O)n4C)n2)n(C)n1` [Example 23b], the “HTRF pIC50” value was 6.05.
With `Cn1c(=O)n(CCC(C)(C)O)c2cc(Nc3nc(N4CCC(CN5CCOCC5)CC4)ncc3Cl)ccc21` [Example 42c, 5-((5-chloro-2-(4-(morpholinomethyl)piperidin-1-yl)pyrimidin-4-yl)amino)-3-(3-hydroxy-3-methylbutyl)-1-methyl-1,3-dihydro-2H-benzo[d]imidazol-2-one], the “HTRF pIC50” value is 6.56.
On to `CCOC(=O)c1cnn(-c2ncc(Cl)c(Nc3ccc4c(c3)n(CCC(C)(C)O)c(=O)n4C)n2)c1` [Example 15b], for which the “HTRF pIC50” value amounted to 5.96.
On the same count and under the same terms, the same measure for `Cn1c(=O)n(CC2CCCCN2CC(F)(F)F)c2cc(Nc3ccnc(Cl)c3C#N)ccc21` (stereo not shown) [Example 25e, 2-chloro-4-((1-methyl-2-oxo-3-((1-(2,2,2-trifluoroethyl)piperidin-2-yl)methyl)-2,3-dihydro-1H-benzo[d]imidazol-5-yl)amino)nicotinonitrile]: 5.37; for `Cn1c(=O)n(CCC(C)(C)O)c2cc(Nc3ccnc(F)c3Cl)ccc21` [Example 29a, 5-((3-chloro-2-fluoropyridin-4-yl)amino)-3-(3-hydroxy-3-methylbutyl)-1-methyl-1,3-dihydro-2H-benzo[d]imidazol-2-one]: 6.21.
Take `Cn1c(=O)n(CCC(C)(C)O)c2cc(Nc3ccncc3Cl)ccc21` [Example 29e, 5-((3-chloropyridin-4-yl)amino)-3-(3-hydroxy-3-methylbutyl)-1-methyl-1,3-dihydro-2H-benzo[d]imidazol-2-one]: the “HTRF pIC50” value turned out to be 5.93.
Consider `Cn1ccnc1-c1ncc(Cl)c(Nc2ccc3c(c2)n(CCC(C)(C)O)c(=O)n3C)n1` [Example 24a, 5-((5-chloro-2-(1-methyl-1H-imidazol-2-yl)pyrimidin-4-yl)amino)-3-(3-hydroxy-3-methylbutyl)-1-methyl-1,3-dihydro-2H-benzo[d]imidazol-2-one:formic acid (1:1)], for which the “HTRF pIC50” value is given as 6.33.
As for `CCOC(=O)c1cc(Nc2ccc3c(c2)n(CC[C@@H](C)O)c(=O)n3C)c(C#N)c(Cl)n1` [Example 2d, Ethyl 6-chloro-5-cyano-4-[[3-[(3R)-3-hydroxybutyl]-1-methyl-2-oxo-benzimidazol-5-yl]amino]pyridine-2-carboxylate], the “HTRF pIC50” value is reported as 5.87.
Same read-out and setting: the same measure for `C[C@@H]1CN(c2ncc(Cl)c(Nc3ccc4c(c3)n(CCC(C)(C)O)c(=O)n4CCN3CCOCC3)n2)C[C@H](C)C1(F)F` [Example 37b, 5-((5-chloro-2-((3S,5R)-4,4-difluoro-3,5-dimethylpiperidin-1-yl)pyrimidin-4-yl)amino)-3-(3-hydroxy-3-methylbutyl)-1-(2-morpholinoethyl)-1,3-dihydro-2H-benzo[d]imidazol-2-one]: 6.47.

Still in this test, the particulars now being: initially generated data; 10 nM Trx-6×His-BCL6, 300 nM BCOR-AF633 peptide, 1 nM anti-6×His-Terbium cryptate.
For the compound `CC(=O)NC(C)CCn1c(=O)n(C)c2ccc(Nc3ccnc(Cl)c3C#N)cc21` (stereo not shown) [Example 13, N-[3-[6-[(2-Chloro-3-cyano-4-pyridyl)amino]-3-methyl-2-oxo-benzimidazol-1-yl]-1-methyl-propyl]acetamide], the “HTRF pIC50” value turned out to be 5.75.
In the case of `COC(=O)C(C)CCn1c(=O)n(C)c2ccc(Nc3cc(-c4nc(C)no4)nc(Cl)c3C#N)cc21` (stereo not shown) [Example 5, Methyl 4-[6-[[2-chloro-3-cyano-6-(3-methyl-1,2,4-oxadiazol-5-yl)-4-pyridyl]amino]-3-methyl-2-oxo-benzimidazol-1-yl]-2-methyl-butanoate], the “HTRF pIC50” value worked out at 5.99.
Take `COC(=O)C(C)CCn1c(=O)n(C)c2ccc(Nc3cc(C(=O)O)nc(Cl)c3C#N)cc21` (stereo not shown) [Example 3a, 6-Chloro-5-cyano-4-[[3-(4-methoxy-3-methyl-4-oxo-butyl)-1-methyl-2-oxo-benzimidazol-5-yl]amino]pyridine-2-carboxylic acid]: the “HTRF pIC50” value came out at 6.21.
On to `COC(=O)C(C)CCn1c(=O)n(C)c2ccc(Nc3cc(C(=O)OC(C)C)nc(Cl)c3C#N)cc21` (stereo not shown) [Example 2c, Isopropyl 6-chloro-5-cyano-4-[[3-(4-methoxy-3-methyl-4-oxo-butyl)-1-methyl-2-oxo-benzimidazol-5-yl]amino]pyridine-2-carboxylate], for which the “HTRF pIC50” value was 6.10.
In the case of `CCOC(=O)c1cc(Nc2ccc3c(c2)n(CC[C@@H](C)O)c(=O)n3C)c(C#N)c(Cl)n1` [Example 2d, Ethyl 6-chloro-5-cyano-4-[[3-[(3R)-3-hydroxybutyl]-1-methyl-2-oxo-benzimidazol-5-yl]amino]pyridine-2-carboxylate], the “HTRF pIC50” value stood at 6.17.
With `COC(=O)C(C)CCn1c(=O)n(C)c2ccc(Nc3cc(C(=O)N(C)C)nc(Cl)c3C#N)cc21` (stereo not shown) [Example 7c, Methyl 4-[6-[[2-chloro-3-cyano-6-(dimethylcarbamoyl)-4-pyridyl]amino]-3-methyl-2-oxo-benzimidazol-1-yl]-2-methyl-butanoate], the “HTRF pIC50” value amounted to 5.57.

Still in this test, the particulars now being: result in words.
Consider `CCN(CC)CCn1c(=O)n(C)c2ccc(Nc3ccnc(Cl)c3C#N)cc21` [2-chloro-4-((3-(2-(diethylamino)ethyl)-1-methyl-2-oxo-2,3-dihydro-1H-benzo[d]imidazol-5-yl)amino)nicotinonitrile], for which the “activity in the HTRF assay” value was “did not exhibit the desired activity”.
Same read-out and setting: the same measure for `Cn1c(=O)n(CCC(C)(C)O)c2cc(Nc3c(Cl)cncc3Cl)ccc21` [5-((3,5-dichloropyridin-4-yl)amino)-3-(3-hydroxy-3-methylbutyl)-1-methyl-1,3-dihydro-2H-benzo[d]imidazol-2-one]: “did not exhibit the desired activity”; for `Cn1c(=O)n(CCC(C)(C)O)c2cc(Nc3cc(N4CCC(F)(F)CC4)ncc3Cl)ncc21` [6-((5-chloro-2-(4,4-difluoropiperidin-1-yl)pyridin-4-yl)amino)-1-(3-hydroxy-3-methylbutyl)-3-methyl-1,3-dihydro-2H-imidazo[4,5-c]pyridin-2-one]: “did not exhibit the desired activity”; for `Cn1c(=O)n(CC2CCOC2(C)C)c2cc(Nc3ccnc(Cl)c3C#N)ccc21` (stereo not shown) [2-chloro-4-((3-((2,2-dimethyltetrahydrofuran-3-yl)methyl)-1-methyl-2-oxo-2,3-dihydro-1H-benzo[d]imidazol-5-yl)amino)nicotinonitrile]: “did not exhibit the desired activity”.
With `Cn1c(=O)n(CCC(C)(C)O)c2cc(Nc3cc4nccn4cc3Cl)ccc21` [5-((6-chloroimidazo[1,2-a]pyridin-7-yl)amino)-3-(3-hydroxy-3-methylbutyl)-1-methyl-1,3-dihydro-2H-benzo[d]imidazol-2-one], the “activity in the HTRF assay” value is listed as “did not exhibit the desired activity”.
`Cn1c(=O)n(CC2CCN2)c2cc(Nc3ccnc(Cl)c3C#N)ccc21` (stereo not shown) [4-((3-(azetidin-2-ylmethyl)-1-methyl-2-oxo-2,3-dihydro-1H-benzo[d]imidazol-5-yl)amino)-2-chloronicotinonitrile]: the “activity in the HTRF assay” value is “did not exhibit the desired activity”.
Still for that read-out and setting: the entry for `Cn1c(=O)n(CCC(C)(O)CCO)c2cc(Nc3nc(Cl)ncc3Cl)ccc21` (stereo not shown) [5-((2,5-dichloropyrimidin-4-yl)amino)-3-(3,5-dihydroxy-3-methylpentyl)-1-methyl-1,3-dihydro-2H-benzo[d]imidazol-2-one] is “did not exhibit the desired activity”.
